Eleven compounds from PubChem BioAssay (NCI) can be followed below.

Test systems include PC-3 prostate; 786-0 renal; RXF 393 renal; HCT-15 colon; COLO 205 colon; HL-60(TB) leukemia; BT-549 breast; KM12 colon; SW-620 colon; CCRF-CEM leukemia.
Common to all, as to assay: NCI anticancer screen, dose series, 48 h

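Growth conditions: 96-well plates. Treatment: test compound, 48 hours, 5 concentrations. Analysis: linear interpolation between bracketing concentrations; unreached endpoints set to highest concentration. At the GI50, growth is halved. The concentration for full growth arrest is given as TGI.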

In the case of `Cc1ccc(-c2cc3c(SCC(=O)Nc4cc(C(F)(F)F)ccc4Cl)nccn3n2)cc1`, the GI50 with PC-3 prostate is over 100 µM; in the assay with 786-0 renal, 10.1 µM; in the assay with RXF 393 renal, over 100 µM; in the assay on HCT-15 colon it was over 100 µM; in the assay with COLO 205 colon it was over 100 µM; in the assay with HL-60(TB) leukemia, over 100 µM. Further, the GI50 in the assay on BT-549 breast, in the assay on KM12 colon and with SW-620 colon was over 100 µM each time. Besides, the TGI with PC-3 prostate was over 100 µM; in the assay with 786-0 renal, 87.2 µM; in the assay on RXF 393 renal it was over 100 µM; with HCT-15 colon it was over 100 µM; with COLO 205 colon, over 100 µM; with HL-60(TB) leukemia, over 100 µM. The TGI with BT-549 breast, in the assay on KM12 colon and in the assay with SW-620 colon was over 100 µM each time.
Consider `NC(N)=N/N=C/c1c(-c2cc(Cl)sc2Cl)nc2sccn12`, for which the GI50 is 1.55 µM with PC-3 prostate; 0.924 µM in the assay with 786-0 renal; 0.807 µM with CCRF-CEM leukemia; 3.52 µM in the assay with RXF 393 renal; 1.01 µM in the assay with HCT-15 colon; 1.14 µM in the assay with BT-549 breast. The figures for the GI50 with KM12 colon and in the assay on SW-620 colon were 1.04 µM and 1 µM, respectively. The TGI with PC-3 prostate turned out to be 6.15 µM; with 786-0 renal, 1.79 µM; in the assay with CCRF-CEM leukemia, 1.68 µM; with RXF 393 renal it was 13.7 µM; with HCT-15 colon it was 2.87 µM; with BT-549 breast it was 2.55 µM. Besides, the TGI stood at 2.75 µM in the assay on KM12 colon and 2.43 µM with SW-620 colon.
In the case of `O=[N+]([O-])c1ccc(Sc2ncnc3nc[nH]c23)c2nonc12`, the GI50 is 13.1 µM in the assay with PC-3 prostate; 1.74 µM in the assay on 786-0 renal; 1.78 µM in the assay with CCRF-CEM leukemia; 10.5 µM in the assay on HCT-15 colon; 2.17 µM in the assay on COLO 205 colon; 2.8 µM with HL-60(TB) leukemia. Further, the GI50 is 10.3 µM in the assay on BT-549 breast, 15.1 µM in the assay on KM12 colon and 1.63 µM with SW-620 colon. Also, the TGI with PC-3 prostate is 30 µM; in the assay with 786-0 renal, 5.16 µM; with CCRF-CEM leukemia, 5.14 µM; in the assay on HCT-15 colon, 36.1 µM; in the assay on COLO 205 colon, 4.67 µM; in the assay with HL-60(TB) leukemia it was 6.03 µM. The TGI was 27.4 µM in the assay on BT-549 breast, over 100 µM with KM12 colon and 3.44 µM in the assay with SW-620 colon.
As for `COc1cc(OC)c(/C=C\c2ccnc3ccccc23)c(OC)c1`, the TGI with PC-3 prostate turned out to be 23 µM; in the assay with 786-0 renal, 17.8 µM; with CCRF-CEM leukemia, 5.75 µM; in the assay with RXF 393 renal it was 11.6 µM; with HCT-15 colon, 18.5 µM; in the assay with COLO 205 colon, 8.2 µM. The values for the TGI in the assay on HL-60(TB) leukemia, in the assay with KM12 colon and with SW-620 colon were 0.963 µM, 16.5 µM and 20.8 µM, respectively.
`COC(=O)C(=O)C(C(=O)C(=O)Nc1nc2ccc(C)cc2s1)c1nc2ccc([N+](=O)[O-])cc2[nH]c1=O` (configuration not stated): the TGI with PC-3 prostate, in the assay on 786-0 renal, in the assay on CCRF-CEM leukemia, with RXF 393 renal, in the assay on HCT-15 colon and with HL-60(TB) leukemia was over 100 µM in each case. In addition, the TGI in the assay with BT-549 breast, in the assay with KM12 colon and in the assay on SW-620 colon was over 100 µM throughout.
Take `O=C1c2ccccc2S(=O)(=O)N1CSC(=S)N1CCCCC1`: the GI50 is over 100 µM in the assay with 786-0 renal; over 100 µM in the assay on RXF 393 renal; over 100 µM with HCT-15 colon; over 100 µM in the assay with COLO 205 colon; 0.0329 µM with HL-60(TB) leukemia; over 100 µM in the assay with BT-549 breast. In addition, the GI50 with KM12 colon is over 55.7 µM; in the assay on SW-620 colon, over 100 µM. Also, the TGI in the assay on 786-0 renal, in the assay with RXF 393 renal, with HCT-15 colon, in the assay with COLO 205 colon, with HL-60(TB) leukemia and in the assay on BT-549 breast was over 100 µM in each case. Besides, the TGI with KM12 colon and with SW-620 colon was over 100 µM in each case.
In the case of `CCCCCCCCCCCCCC(=O)OCC1OC(n2cc(F)c(=O)[nH]c2=O)C(NC(=O)OCc2ccccc2)C(OC(=O)CCCCCCCCCCCCC)C1O` (configuration not stated), the TGI in the assay on 786-0 renal, in the assay on CCRF-CEM leukemia, in the assay with RXF 393 renal, with HCT-15 colon, with COLO 205 colon and with HL-60(TB) leukemia was over 100 µM throughout. In addition, the TGI in the assay with KM12 colon and with SW-620 colon was over 100 µM throughout.
In the case of `COC(=O)/C=C(\C(=O)OC)c1c2c3c(cc(OC)c(OC)c3c3ccccc13)CCN2C`, the TGI in the assay on 786-0 renal was over 100 µM; in the assay on CCRF-CEM leukemia, 85.4 µM; in the assay with RXF 393 renal, over 100 µM; in the assay on HCT-15 colon, over 100 µM; with COLO 205 colon it was 31.7 µM; in the assay with HL-60(TB) leukemia it was 56.3 µM. For the same compound, the TGI in the assay on KM12 colon and with SW-620 colon was over 100 µM each time.
Consider `N#Cc1ccccc1NC(=O)C(=O)c1c(O)c2ccccc2oc1=O`, for which the TGI in the assay with PC-3 prostate, in the assay on 786-0 renal, in the assay with CCRF-CEM leukemia, with RXF 393 renal, in the assay on HCT-15 colon and in the assay on HL-60(TB) leukemia was over 100 µM throughout. The TGI in the assay with BT-549 breast, with KM12 colon and with SW-620 colon was over 100 µM in each case.
For the compound `COc1ccc(C2CC(c3cc(C)ccc3O)=NC(N)=N2)cc1` (configuration not stated), the TGI in the assay with 786-0 renal, in the assay with CCRF-CEM leukemia, with RXF 393 renal, in the assay with HCT-15 colon, in the assay with COLO 205 colon and in the assay with HL-60(TB) leukemia was over 100 µM in each case. Further, the TGI in the assay with KM12 colon and with SW-620 colon was over 100 µM in each case.
In the case of `COc1ccc2c(c1)[n+](=O)c(C(=O)c1ccco1)c(C(F)(F)F)n2[O-]`, the GI50 was 4.64 µM in the assay on PC-3 prostate; 3.83 µM with 786-0 renal; 1.67 µM in the assay with RXF 393 renal; 1.16 µM in the assay with HCT-15 colon; 3.55 µM with COLO 205 colon; 3.29 µM in the assay on HL-60(TB) leukemia. Besides, the GI50 in the assay with BT-549 breast is 2.64 µM; in the assay on KM12 colon, 4.48 µM; in the assay on SW-620 colon it was 3.53 µM. Besides, the TGI is over 100 µM in the assay on PC-3 prostate; 54.1 µM in the assay with 786-0 renal; 12 µM in the assay on RXF 393 renal; 4.6 µM in the assay on HCT-15 colon; 18.7 µM in the assay on COLO 205 colon; over 100 µM in the assay on HL-60(TB) leukemia. In addition, the results for the TGI with BT-549 breast, with KM12 colon and in the assay with SW-620 colon were 18.9 µM, 32.6 µM and 34.5 µM, respectively.
